The source of these data is PubChem BioAssay (NCI).

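Five compound concentrations were applied to cells in 96-well plates for 48 hours; endpoints were derived by simple linear interpolation of the resulting dose-response curve. GI50: concentration for 50% inhibition of growth. TGI denotes the concentration required for complete inhibition of growth.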

What all share (assay): NCI anticancer screen, dose series, 48 h
The test system of assay [1] is LXFL 529 NSCLC.
The test system of assay [2] is DLD-1 colon.
Assay [3] relates to DMS 273 small cell lung.
Assay [4] relates to KM20L2 colon.
Assay [5] relates to RXF-631 renal.
Assay [6] relates to M19-MEL melanoma.
In assay [7] the test system is XF 498 CNS.
In assay [8] the test system is SNB-78 CNS.
Assay [9] concerns MDA-N.

On to `COc1ccc(/C=c2\sc3nnc(CCC(=O)Nc4cccc(C(F)(F)F)c4)n3c2=O)cc1`, for which the TGI in assay [1], in [2], in assay [3], in assay [4], in assay [5] and in assay [6] was greater than 100 µM each time. Besides, the TGI in [7] and in assay [8] was greater than 100 µM in each case.
For the molecule `CN=c1ss/c(=N\C(=S)N(C)C)n1C1CCCCC1`, the TGI in assay [1] is greater than 31.6 µM; in assay [2], greater than 100 µM; in assay [3], greater than 31.6 µM; in [4] it was greater than 31.6 µM; in [5] it was greater than 100 µM; in assay [6] it was greater than 31.6 µM. Besides, the TGI in [7] and in assay [8] was greater than 31.6 µM each time.
Regarding `COC(=O)[C@H]1CC(=O)C=C2CCCC21` (stereo not given in full), the TGI in [1], in assay [2], in assay [3], in [5], in [6] and in assay [7] was greater than 100 µM throughout.
As to `O=C(O)CN(CC(=O)O)c1ccccc1`, the TGI in [9] is greater than 100 µM.
`O=C(O)c1ccccc1-c1ccccc1C(=O)Nc1ccc2c(c1)Cc1ccccc1-2`: the TGI in [9] is 77.1 µM.
For the molecule `CC[C@@]1(O)C(=O)OCc2c1cc1n(c2=O)Cc2cc3c(Cl)c4c(cc3nc2-1)OCO4`, the TGI in assay [9] was greater than 100 µM.
As to `CC(N)CN.CC(N)CN.[Cl-].[O]=[Os+2]=[O]` (stereo not given), the GI50 in [1] is 53.1 µM; in assay [2] it was greater than 100 µM; in assay [3], 43.1 µM; in assay [4], 89.6 µM; in assay [5], 96.9 µM; in assay [6] it was 7.59 µM. In assay [8], the GI50 was greater than 100 µM. Further, the TGI is greater than 100 µM in assay [1]; greater than 100 µM in assay [2]; greater than 100 µM in assay [3]; greater than 100 µM in [4]; greater than 100 µM in assay [5]; 26.3 µM in assay [6]. The molecule also displayed a TGI in [8] greater than 100 µM.
Take `O=C1C=CC(=O)c2c1cc1ccccc1c2O`: the TGI in assay [9] turned out to be 18.5 µM; in [1], 3.99 µM; in assay [2], 3.24 µM; in [3] it was 29.5 µM; in assay [4], 40.2 µM; in assay [6], 11.3 µM. In addition, the TGI was 8.39 µM in assay [7] and 10.5 µM in assay [8].
For the molecule `COC(=O)CSc1n[nH]c(-c2ccccc2)n1`, the TGI in assay [1], in assay [2], in assay [3], in assay [4], in assay [6] and in assay [8] was greater than 100 µM in each case.
`Cc1ccc2nc3sc(=O)sc3nc2c1` gave a TGI in assay [9] of 32 µM.
Regarding `CC1(C)C(=O)CCC(=O)C(C)(C)C2=CC=C(O2)C(C)(C)C(=O)CCC(=O)C(C)(C)C2=CC=C1O2`, the TGI in assay [1], in assay [3], in assay [4], in assay [6] and in [8] was greater than 100 µM each time.
As for `O=S1c2ccccc2N=C(c2ccc3ccccc3c2)CC1c1ccccc1F` (stereo not given), the TGI in assay [1], in assay [2], in assay [3], in assay [4], in assay [5] and in assay [6] was greater than 100 µM throughout. Besides, the TGI in [7] is greater than 100 µM.
As for `COc1ccc2oc(-c3cc4cc(OC)ccc4o3)cc2c1`, the TGI in assay [1], in [2], in assay [3], in assay [4], in [5] and in assay [7] was greater than 100 µM in each case. The TGI in assay [8] is greater than 100 µM.
Molecule `Cc1cc2oc(=O)c(Cl)c(Cl)c2c(C)c1Cl` came in with a TGI in assay [9] of 10.8 µM.
For `NC(Cn1ccc(=O)c(O)c1)C(=O)O` (stereo not given), the TGI in assay [9] is greater than 100 µM.
With `CCOC(=O)C/C(N)=C(\C#N)C(=O)OCC`, the TGI in [1], in assay [2], in assay [3], in [4], in assay [5] and in assay [6] was greater than 100 µM in each case. For the same molecule, the TGI in [7] and in [8] was greater than 100 µM in each case.
`S=C(Nc1ccc(Cl)cc1)SC1CCCCC1`: the TGI in assay [9] is 47 µM.
Still for that read-out and setting: then `COc1cccc(C(C#N)NC23CC4CC(CC(C4)C2)C3)c1` (stereo not given), with greater than 100 µM.
On to `CC(C)(C)C1CCP(=O)(c2ccccc2)CC1` (stereo not given), for which the TGI in assay [1], in [2], in assay [3], in assay [4], in assay [6] and in [7] was greater than 100 µM each time. The TGI in [8] was greater than 100 µM.
`CC(C)(C)C1CCC(CI)(N=[N+]=[N-])CC1` (stereo not given): the TGI in assay [1], in [2], in assay [3], in [4], in assay [6] and in assay [7] was greater than 100 µM throughout. In [8], this molecule showed a TGI greater than 100 µM.
Turning to `Cc1ccc(S(=O)(=O)Nc2cccc(C)c2C)cc1`, the TGI in assay [1], in [3], in assay [5], in assay [6] and in assay [8] was greater than 100 µM in each case.
Take `CN(C)CCCNC(=O)c1cccc2nc3ccccc3nc12`: the TGI in assay [1] is greater than 95.2 µM; in assay [2], greater than 100 µM; in assay [3], greater than 100 µM; in assay [4], greater than 100 µM; in [5], greater than 100 µM; in [6] it was 16.4 µM. Further, the TGI in [7] was 2.1 µM; in assay [8] it was greater than 71.6 µM.
For the molecule `COc1ccc(/C=C/c2ccnc3ccccc23)cc1`, the TGI in [9] is 31.6 µM.
Take `CC1=C(C(=O)Nc2cccc(C(F)(F)F)c2)C(c2ccccc2F)C(C(=O)Nc2cccc(C(F)(F)F)c2)=C(C)N1`: the TGI in [1] was 19.2 µM; in [2], 20.3 µM; in assay [4], 18.4 µM; in [5], 23.2 µM; in assay [6], 21.3 µM; in assay [7], 14.6 µM. For the same molecule, in [8], the TGI was 65.6 µM.
Take `Nc1nc2c(c(=O)[nH]1)N=C(COP(=O)(O)OP(=O)(O)O)CN2`: the TGI in assay [9] is greater than 100 µM.
Regarding `C=C(CS(=O)(=O)c1ccccc1)C(=O)OCC`, the TGI in [1] was determined as 27 µM; in assay [2] it was 21.4 µM; in [3], 35.5 µM; in [4], 45.3 µM; in assay [5], 16.8 µM; in assay [7], 33.4 µM.
As to `Cc1nn2c(=O)n(-c3cccc(-n4nnc5c(-c6ccccc6)c(C)nn5c4=O)c3C)nnc2c1-c1ccccc1`, the TGI is greater than 100 µM in assay [1]; 91.6 µM in assay [2]; greater than 100 µM in [3]; 42.1 µM in [4]; greater than 100 µM in [6]; 40.1 µM in assay [7]. Moreover, the TGI in assay [8] was greater than 100 µM.
`O=C(NCCSSCCNC(=O)/C(Cc1ccc(O)c(Br)c1)=N/O)/C(Cc1ccc(O)c(Br)c1)=N/O` had a TGI in assay [9] of 6.99 µM.
With `COc1cc(-c2ccccc2)c(OC)cc1CCl`, the TGI in [2], in assay [3], in [4], in assay [5], in assay [6] and in assay [7] was greater than 100 µM throughout. In addition, the TGI in [8] was greater than 100 µM.
With `CC[C@@]1(OC(=O)C(N)CCC(=O)O)C(=O)OCc2c1cc1n(c2=O)Cc2cc3ccccc3nc2-1` (stereo not given in full), the TGI in assay [1] is 5.75 µM; in assay [2], greater than 100 µM; in assay [3], 0.29 µM; in [4], 5.08 µM; in [6], 1.49 µM; in assay [7], 2.04 µM. For the same molecule, the TGI in [8] is greater than 100 µM.
For the molecule `[CH3][Sn]([CH3])([CH3])[O]C(=O)C(O)c1ccccc1` (stereo not given), the GI50 in assay [9] is 3.62 µM; in assay [1], 2.98 µM; in assay [2] it was 4.93 µM; in assay [3], 3.01 µM; in assay [4], 2.98 µM; in [6], 3.31 µM. The results for the GI50 in assay [7] and in assay [8] were 2.92 µM and 42.7 µM, respectively. In addition, the TGI in assay [9] is 15.9 µM; in [1], greater than 28.4 µM; in assay [2], greater than 100 µM; in assay [3], 14 µM; in assay [4] it was 9.42 µM; in assay [6] it was 9.6 µM. The TGI in [7] is 20.9 µM; in assay [8], greater than 100 µM.
`Cc1cn(C2CC(N=[N+]=[N-])C(CO)O2)c(=O)[nH]c1=O` (stereo not given) displayed a TGI in [9] greater than 1000 µM.
Take `CC(=O)NC1CCCN(O)C(=O)/C=C(/C)CCOC(=O)C(NC(C)=O)CCCN(O)C(=O)/C=C(/C)CCOC(=O)C(NC(C)=O)CCCN(O)C(=O)/C=C(/C)CCOC1=O.[Fe]` (stereo not given): in [9], the GI50 is greater than 100 µM and the TGI was greater than 100 µM.
For `O=C(O)CC1C(=O)OC2C3COC(=O)c4cc(O)c(O)c(O)c4-c4c(cc(O)c(O)c4O)C(=O)OC2C(OC(=O)c2cc(O)c(O)c4c2C1C(O)C(=O)O4)C(OC(=O)c1cc(O)c(O)c(O)c1)O3` (stereo not given), in [9], the TGI is 50.1 µM.
Same read-out and setting: then `O=NNc1ccc(Sc2ccc3ccccc3c2)cn1`, with greater than 100 µM.
`CCOc1ccc(/C=N\N2C(=O)c3ccccc3C2=O)cc1`: the TGI in assay [1], in assay [2], in [3], in assay [4], in [5] and in assay [6] was greater than 100 µM each time. Further, the TGI in assay [7] and in assay [8] was greater than 100 µM in each case.
With `COc1cc(-c2ccc(Nc3ccccc3C(=O)O)c(OC)c2)ccc1Nc1ccccc1C(=O)O`, the TGI is 97.5 µM in [9]; greater than 100 µM in assay [1]; greater than 72.8 µM in assay [2]; greater than 100 µM in assay [3]; greater than 100 µM in assay [4]; greater than 100 µM in assay [7]. This molecule also had a TGI in assay [8] greater than 100 µM.
